Converted amounts (≈) assume the structure as drawn.
Experiments:
[1] = tested on: Ambystoma mexicanum; assay: Toxicity in axolotl at <=10 uM by embryo tail regeneration assay; format: organism-based; details: in vivo
[2] = tested on: Saccharomyces cerevisiae; assay: Antimicrobial activity against Saccharomyces cerevisiae ATCC 204508 incubated for 16 to 48 hrs; format: functional
[3] = tested on: Salmonella enterica; assay: Antimicrobial activity against Salmonella enterica ATCC 10708 incubated for 16 to 48 hrs; format: functional
[4] = tested on: Bacillus subtilis; assay: Antimicrobial activity against Bacillus subtilis ATCC 6633 incubated for 16 to 48 hrs; format: functional
[5] = tested on: PC-3; assay: Cytotoxicity in human PC3 cells assessed as reduction in cell viability incubated for 48 hrs; format: functional, cell-based; details: PC-3, 48 h
[6] = tested on: Staphylococcus aureus; assay: Antimicrobial activity against Staphylococcus aureus ATCC 6538 incubated for 16 to 48 hrs; format: functional
[7] = tested on: Escherichia coli; assay: Antimicrobial activity against Escherichia coli NRRL B-3708 incubated for 16 to 48 hrs; format: functional
[8] = tested on: Micrococcus luteus; assay: Antimicrobial activity against Micrococcus luteus NRRL B-287 incubated for 16 to 48 hrs; format: functional
[9] = tested on: A549; assay: Cytotoxicity in human A549 cells assessed as reduction in cell viability incubated for 48 hrs; format: functional, cell-based; details: A549, 48 h
[10] = tested on: Mycolicibacterium aurum; assay: Antimicrobial activity against Mycobacterium aurum ATCC 23366 incubated for 16 to 48 hrs; format: functional

SMILES | Activity [1] | MIC [2] [µM] | MIC [3] [µM] | MIC [4] [µM] | IC50 [5] [µM] | MIC [6] [µM] | MIC [7] [µM] | MIC [8] [µM] | IC50 [9] [µM] | MIC [10] [µM]
O=C(O)c1ccc(O)c2nc3c4c(ccc3nc12)[C@@H]1Cc2nc3cccc(O)c3nc2[C@H](O4)[C@H]1O | Non-Toxic | > 120 | > 120 | > 120 | > 50 | > 120 | > 120 | > 120 | > 50 | > 120
NC(=O)c1cccc2nc3c4c(ccc3nc12)[C@H]1c2nc3c(O)cccc3nc2C[C@@H]4[C@@H]1O | Non-Toxic | > 120 | > 120 | 7.5 (≈ 3.27 µg/mL) | 4.7 | 4 (≈ 1.74 µg/mL) | > 120 | 7.5 (≈ 3.27 µg/mL) | 2.4 | 30 (≈ 13.1 µg/mL)
O=C(O)C1(O)O[C@@H]2[C@@H](Cc3nc4c(O)cccc4nc3[C@@H]2O)[C@H]1c1ccc(O)cc1 (stereo not given in full) | Non-Toxic | > 120 | > 120 | > 120 | > 50 | > 120 | > 120 | > 120 | > 50 | > 120
O=C(O)c1cc2c(c3nc4cccc(O)c4nc13)[C@@H]1Cc3nc4cccc(O)c4nc3[C@@](O)(C1)O2 | Non-Toxic | > 120 | > 120 | > 120 | > 50 | > 120 | > 120 | > 120 | > 50 | > 120
O=C(O)c1cccc2nc3c4c(ccc3nc12)[C@H]1c2nc3c(O)cccc3nc2C[C@@H]4[C@H]1O | Non-Toxic | > 120 | > 120 | > 120 | > 50 | > 120 | > 120 | > 120 | > 50 | > 120
O=C(O)C1(O)O[C@@H]2[C@@H](Cc3nc4c(O)cccc4nc3[C@@H]2O)[C@H]1c1c[nH]c2ccccc12 (stereo not given in full) | Non-Toxic | > 120 | > 120 | > 120 | > 50 | > 120 | > 120 | > 120 | > 50 | > 120
O=C(O)C1(O)O[C@@H]2[C@@H](Cc3nc4c(O)cccc4nc3[C@H]2O)[C@H]1c1c[nH]c2ccccc12 (stereo not given in full) | Non-Toxic | > 120 | > 120 | > 120 | > 50 | > 120 | > 120 | > 120 | > 50 | > 120

Source: ChEMBL document CHEMBL4392871, “Baraphenazines A-G, Divergent Fused Phenazine-Based Metabolites from a Himalayan Streptomyces” (J Nat Prod, 2019)
